# Earlier results in US10548837B1, “Topical montelukast for treatment of atopic dermatitis” (TARO PHARMACEUTICAL INDUSTRIES LTD., priority 2016, dated 2020).
# Target: T1, cysLT1 receptor (Homo sapiens, UniProt Q9Y271)
# T1 sequence (Q9Y271 1-337): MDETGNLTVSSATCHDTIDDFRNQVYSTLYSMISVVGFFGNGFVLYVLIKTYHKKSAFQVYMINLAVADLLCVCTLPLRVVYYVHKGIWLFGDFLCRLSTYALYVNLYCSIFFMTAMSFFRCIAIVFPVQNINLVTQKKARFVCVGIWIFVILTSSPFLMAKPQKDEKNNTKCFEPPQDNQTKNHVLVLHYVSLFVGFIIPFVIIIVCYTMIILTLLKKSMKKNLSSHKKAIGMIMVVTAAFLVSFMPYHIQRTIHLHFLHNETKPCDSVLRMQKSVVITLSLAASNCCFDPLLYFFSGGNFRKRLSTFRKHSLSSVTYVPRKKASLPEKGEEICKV
# Settings: background statement
structure (smiles),measurement,value
COc1cc(C(=O)NS(=O)(=O)c2ccccc2C)ccc1Cc1cn(C)c2ccc(NC(=O)OC3CCCC3)cc12 [zafirlukast],binding to the cysLT1 receptor,high-affinity binding
